Laboratory results published in US20240277246A1, “MANGANESE-ENHANCED MAGNETIC RESONANCE IMAGING” (IC Targets AS, priority 2021, published 2024).
Where two headings read alike, the source gives them in different places.

What was measured:
[1] = corresponds to end of infusion
Experimental: A midventricular short axis view was used and a region of interest in the left ventricle myocardium and a region of interest in the blood in the ventricular cavity were used for measurements. […] The total infusion time was 7.5 minutes. T1 mapping MRI was performed every 2.5 minutes for a total of 40 minutes to collect data for kinetic analysis.
After the examination, the myocardial T1 values were converted to changes in relaxation rates from the baseline values according to equation 12. The heamocrit for the subject was measured to 0.41 and the plasma T1 values were converted to changes in relaxation rates according to equation 13.
A midventricular short axis view was used in each patient and a region of interest in the left ventricle myocardium and a region of interest in the blood in the ventricular cavity was used for measurements. […] The total infusion time was 7.5 minutes. T1 mapping MRI was performed every 2.5 minutes for a total of 40 minutes to collect data for kinetic analysis.
After the examinations, the myocardial T1 values were converted to changes in relaxation rates from the baseline values according to equation 12. The average heamocrit for the 5 subjects was measured to 0.416 and the plasma T1 values were converted to changes in relaxation rates according to equation 13.

[2] = system: cardiomyocytes (left ventricle myocardium; uptake via L-type calcium channels); experiment: Manganese-enhanced T1 mapping MRI, kinetic analysis of cardiomyocyte cellular manganese uptake after MnDPDP infusion; assay type: in vivo, human
Experimental: A midventricular short axis view was used and a region of interest in the left ventricle myocardium and a region of interest in the blood in the ventricular cavity was used for measurements. […] The total infusion time was 7.5 minutes. T1 mapping MRI was performed every 2.5 minutes for a total of 40 minutes to collect data for kinetic analysis.
After the examination, the myocardial T1 values were converted to changes in relaxation rates from the baseline values according to equation 12. The heamocrit for the subject was measured to 0.44 and the plasma T1 values were converted to changes in relaxation rates according to equation 13.
This is what would be expected from the loss of cells without a loss of individual cell function. Thus, by applying the prior art method, it would therefore wrongly be concluded that the cellular manganese flux rate was reduced.
The rate constant for cardiomyocyte intracellular relaxivity increase Kcell^ΔR1, and thus the cardiomyocyte cellular manganese uptake rate Kcell^Mn, was calculated according to the invention, applying equation 20 where the constant KECF was set equal to 1. The Kcell^Mn value was 0.0650 min^−1. The data used to calculate the rate constant is shown graphically in FIG. 8 (“ict”), corresponding to a straight line with slope=Kcell^Mn=0.0650 min^−1 and intercept=ECV=0.35. […]
If the ECF was in equilibrium with plasma, the slope would be the ECV=0.322. However, due to the uptake of manganese into the cardiomyocytes, the ECF is in dynamic equilibrium with plasma with a manganese concentration ratio of
Assuming that the rate constant for diffusion between plasma and the ECF is the same in both directions, K1=K2 and K3/K1=1/KECF−1=1/0.72−1=0.40.
When the ratio between the manganese concentration in the ECF and plasma can be estimated, the apparent cellular rate constant Kcell^Mn*KECF can be converted to the actual cellular uptake rate constant Kcell^Mn by division with KECF.

SMILES: Cc1ncc(COP(=O)(O)O)c(CN(CCN(CC(=O)[O-])Cc2c(COP(=O)(O)O)cnc(C)c2O)CC(=O)[O-])c1O.[Mn+2] [MnDPDP, manganese (II) N,N′-dipyridoxyl-ethylenediamine-N,N′-diacetate-5,5′-bis(phosphate)]
- time at which plasma ΔR1 is highest ([1]; average of 5 patients with hypertrophic cardiomyopathia): 7.5 min
- time at which plasma ΔR1 is highest ([1]; healthy volunteer): 7.5 min
- time at which plasma ΔR1 is highest ([1]; patient with dilated cardiomyopathia): 7.5 min
- cardiomyocyte cellular manganese uptake rate Kcell^Mn (corrected by division with KECF) ([2]; average of 5 patients with hypertrophic cardiomyopathia, KECF 0.72): 0.096
- apparent cellular rate constant Kcell^Mn*KECF ([2]; average of 5 patients with hypertrophic cardiomyopathia, linear regression without restrictions to the intercept): 0.0691
- slope of the Patlak line (prior art method) ([2]; healthy volunteer, 5 μmol/kg infusion over 7.5 min): 0.0484 min⁻¹
- cardiomyocyte cellular manganese uptake rate Kcell^Mn ([2]; healthy volunteer, 5 μmol/kg infusion over 7.5 min, equation 20, KECF set to 1, forced intercept ECV 0.25): 0.0591 min⁻¹
- uptake rate constant by the Patlak method of prior art ([2]; patient with dilated cardiomyopathia, 5 μmol/kg infusion over 7.5 min): 0.0429
- cardiomyocyte cellular manganese uptake rate Kcell^Mn ([2]; patient with dilated cardiomyopathia, 5 μmol/kg infusion over 7.5 min, equation 20, KECF set to 1, forced intercept ECV 0.35): 0.0650 min⁻¹
